Columns and labels:
[1] = system: soybean; experiment: Test C pre-/postemergence herbicide test; format: in vivo, Glycine max; conditions: preemergence; for Plant response rating (0 = no effect, 100 = complete control), Soybean: 125 g ai/ha
Method in brief: (§1)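 Greenhouse-grown plants were evaluated visually 12 to 14 days after treatment, with 100 meaning complete control and 0 no effect. Application was preemergence, or postemergence at 2 to 18 cm.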

[2] = system: woolly cupgrass; experiment: Test C pre-/postemergence herbicide test; format: in vivo, Eriochloa villosa; conditions: preemergence
Method in brief: as §1

[3] = system: giant foxtail; experiment: Test C pre-/postemergence herbicide test; format: in vivo, Setaria faberi; conditions: preemergence
Method in brief: as §1

[4] = system: yellow nutsedge; experiment: Test C pre-/postemergence herbicide test; format: in vivo, Cyperus esculentus; conditions: preemergence
Method in brief: as §1

[5] = system: morningglory; experiment: Test C pre-/postemergence herbicide test; format: in vivo, Ipomoea coccinea; set-up: key to Plant response rating, Morningglory: 0 = no effect, 100 = complete control; conditions: preemergence
Method in brief: as §1

[6] = system: barnyardgrass; experiment: Test C flooded paddy test; format: in vivo, Echinochloa crus-galli; conditions: for Plant response rating, Barnyardgrass: 500 g ai/ha, visual rating after 12 to 14 days
Method in brief: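 Weeds and wheat were sprayed after emergence, at a height of 2 to 18 cm (1–4 leaves), and paddy barnyardgrass was flooded and treated at two leaves. Assessment took place 12–14 days later in the greenhouse on a 0-to-100 visual control scale. A dash means no result was obtained.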

[7] = system: ducksalad; experiment: Test C flooded paddy test; format: in vivo, Heteranthera limosa; conditions: for Plant response rating, Ducksalad: 500 g ai/ha, visual rating after 12 to 14 days
[8] = 500 g ai/ha, scale 0 to 100 (0 no effect, 100 complete control), visual, 12 to 14 days
[9] = 62 g ai/ha, scale 0 to 100 (0 no effect, 100 complete control)
[10] = 125 g ai/ha, scale 0 to 100 (0 no effect, 100 complete control)
[11] = 250 g ai/ha, scale of 0 to 100, 0 is no effect, 100 is complete control
[12] = scale 0 to 100 (0 no effect, 100 complete control)
[13] = 125 g ai/ha, scale 0 (no effect) to 100 (complete control), visual, 12 to 14 days

| SMILES | Plant response rating, Soybean ([1]; 62 g ai/ha, scale 0 to 100) | Plant response rating, Soybean ([1]; 250 g ai/ha, scale 0-100) | Plant response rating, Soybean [1, 8] | Plant response rating, Cupgrass, Woolly ([2]; 62 g ai/ha, scale 0 to 100) | Plant response rating, Cupgrass, Woolly ([2]; 250 g ai/ha, scale 0-100) | Plant response rating, Cupgrass, Woolly [2, 8] | Plant response rating, Foxtail, Giant ([3]; 62 g ai/ha, scale 0 to 100) | Plant response rating, Foxtail, Giant ([3]; 250 g ai/ha, scale 0-100) | Plant response rating, Foxtail, Giant [3, 8] | Plant response rating, Nutsedge, Yellow ([4]; 62 g ai/ha, scale 0 to 100) | Plant response rating, Nutsedge, Yellow ([4]; 250 g ai/ha, scale 0-100) | Plant response rating, Nutsedge, Yellow [4, 8] | Plant response rating, Morningglory ([5]; 250 g ai/ha, scale 0-100) | Plant response rating, Morningglory [5, 8] | Barnyardgrass plant response rating [6, 9] | Barnyardgrass plant response rating [6, 10] | Barnyardgrass plant response rating [6, 11] | Plant response rating, Barnyardgrass [6, 12] | Ducksalad plant response rating ([7]; 62 g ai/ha, scale 0 to 100) | Ducksalad plant response rating [7, 11] | other results |
| --- | --- | --- | --- | --- | --- | --- | --- | --- | --- | --- | --- | --- | --- | --- | --- | --- | --- | --- | --- | --- | --- |
| CCc1nn(C(C)C)nc1C(=O)Nc1cccc(C(=O)N2CCCCC2)c1 [Compound 385] | 25 | 100 | 100 | 0 | 80 | 95 | 40 | 95 | 100 | 100 | 100 | 100 | 65 | 100 | 20 | 55 | 80 | 85 | 0 | 70 | Plant response rating (0 = no effect, 100 = complete control), Soybean [1]: 100; Plant response rating (0 = no effect, 100 = complete control), Cupgrass, Woolly ([2]; 125 g ai/ha): 60; Plant response rating (0 = no effect, 100 = complete control), Foxtail, Giant ([3]; 125 g ai/ha): 80; Plant response rating (0 = no effect, 100 = complete control), Nutsedge, Yellow ([4]; 125 g ai/ha): 100; Plant response rating, Morningglory ([5]; 62 g ai/ha, scale 0 to 100): 15; Plant response rating, Ducksalad [7, 12]: 75 |
| CCn1nc(C(C)(C)C)cc1C(=O)Nc1ccc(OC)c(OC)c1 [Compound 298] | 0 | 5 | 60 | 5 | 30 | 60 | 20 | 70 | 100 | 0 | 20 | 30 | 20 | 45 | 15 | 50 | 65 | 90 | 35 | 80 | Plant response rating, Cupgrass, Woolly [2, 13]: 10; Plant response rating, Foxtail, Giant [3, 13]: 70; Plant response rating, Nutsedge, Yellow [4, 13]: 0; Plant response rating, Morningglory [5, 13]: 5; Ducksalad plant response rating [7, 10]: 40; Plant response rating, Ducksalad [7, 12]: 90 |
| C=CCNC(=O)c1cccc(NC(=O)c2nn(C(C)C)nc2CC)c1 [Compound 382] | 100 | 100 | 100 | 0 | 20 | 40 | 60 | 100 | 100 | 0 | 25 | 60 | 65 | 100 | 10 | 25 | 65 | 75 | 25 | 80 | Plant response rating (0 = no effect, 100 = complete control), Soybean [1]: 100; Plant response rating (0 = no effect, 100 = complete control), Cupgrass, Woolly ([2]; 125 g ai/ha): 0; Plant response rating (0 = no effect, 100 = complete control), Foxtail, Giant ([3]; 125 g ai/ha): 90; Plant response rating (0 = no effect, 100 = complete control), Nutsedge, Yellow ([4]; 125 g ai/ha): 0; Plant response rating, Morningglory ([5]; 62 g ai/ha, scale 0 to 100): 0; Plant response rating (0 = no effect, 100 = complete control), Morningglory ([5]; 125 g ai/ha): 25; Ducksalad plant response rating [7, 10]: 65; Plant response rating, Ducksalad [7, 12]: 85 |

— patent publication US20060069132A1, “Azolecarboxamide herbicides” (priority 2004, published 2006)
